Values of other authors as cited in patent US20140005116A1, “KELOID TREATMENT” (ADE THERAPEUTICS INC., priority 2010, published 2014).
Peptide text beside a SMILES is read from it.

Settings: heat sterilization and prolonged storage

| stability during sterilization and prolonged storage | SMILES |
| --- | --- |
| sufficiently stable | NCC(=O)N[C@@H](CCC(N)=O)C(=O)O [Glycyl-glutamine] (H-Gly-Gln-OH) |
| sufficiently stable | C[C@H](N)C(=O)N[C@@H](CCC(N)=O)C(=O)O [alanyl-glutamine, L-alanyl-L-glutamine] (H-Ala-Gln-OH) |
